Measurements published in ChEMBL document CHEMBL1130475 (Bioorg Med Chem Lett, 1997).

Key:
[1] = Ability to promote neurite outgrowth against freshly isolated sensory neuronal cultures; type: functional; settings: Gallus gallus; read-out: ED50 (the source's name)
[2] = biological target: FK506 binding protein 12 (Gallus gallus, UniProt Q8QGU2); test: Inhibition of binding to FKBP12 receptor
[3] = tested on: T-cell; test: Tested for its ability to block T-cell proliferation in standard in vitro assay; NI means no inhibition at >10 uM; type: functional, cell-based
[4] = Tested for its ability to inhibit calcineurin phosphatase activity in standard in vitro assay; NI means no inhibition at >10 uM; type: functional

Sequence of FK506 binding protein 12 (Q8QGU2 whole entry): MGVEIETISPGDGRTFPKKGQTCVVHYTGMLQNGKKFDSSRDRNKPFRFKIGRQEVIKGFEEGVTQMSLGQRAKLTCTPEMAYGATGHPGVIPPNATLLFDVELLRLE

Ki [2] [nM] | Activity [4] | Structure (SMILES) | EC50 [1] [nM] | Activity [3]
3 |  | O=C(C(=O)N1CCCCC1C(=O)OC(CCCc1ccccc1)CCCc1ccccc1)c1ccccc1 (configuration not stated) | 0.15 | 
25 | No inhibition | CCC(C)(C)C(=O)C(=O)N1CCCCC1C(=O)OCCCc1cc(OC)c(OC)c(OC)c1 (configuration not stated) | 80 | No inhibition
 |  | COc1cc(C(=O)C(=O)N2CCCCC2C(=O)OC(CCCc2ccccc2)CCCc2ccccc2)cc(OC)c1OC (configuration not stated) | 0.61 | 
 |  | CC(C)(C)C(=O)C(=O)N1CCCCC1C(=O)OCCCc1ccccc1 (configuration not stated) | 0.085 | 
8.3 |  | CCC(C)(C)C(=O)C(=O)N1CCCCC1C(=O)OCCC(c1ccccc1)c1ccccc1 (configuration not stated) | 0.029 | 
 |  | CCC(C)(C)C(=O)C(=O)N1CCCCC1C(=O)OC(CCc1ccccc1)CCc1ccccc1 (configuration not stated) | 0.016 | 
 |  | CCC(C)(C)C(=O)C(=O)N1CCCCC1C(=O)OC(CCCc1ccccc1)CCCc1ccccc1 (configuration not stated) | 5 | 
24 |  | COc1ccc(CCCCOC(=O)C2CCCCN2C(=O)C(=O)C(C)(C)C)cc1 (configuration not stated) | 0.002 | 
15 |  | CCC(C)(C)C(=O)C(=O)N1CCCCC1C(=O)OC(CCCc1ccccc1)CCc1ccc(OC)cc1 (configuration not stated) | 0.17 | 
> 10000 |  | CCOC(=O)C1CCCCN1C(=O)C(=O)OC (configuration not stated) | > 10000 | 
1300 |  | CCOC(=O)C1CCCCN1C(=O)C(=O)C(C)(C)CC (configuration not stated) | 5000 | 
 |  | CC(C)(C)C(=O)C(=O)N1CCCCC1C(=O)OC(CCCc1ccccc1)CCCc1ccccc1 (configuration not stated) | 0.085 | 
250 | No inhibition | CCC(C)(C)C(=O)C(=O)N1CCCCC1C(=O)OCCCc1ccccc1 (configuration not stated) | 300 | No inhibition
60 |  | CCC(C)(C)C(=O)C(=O)N1CCCCC1C(=O)OCCCCc1ccc(OC)cc1 (configuration not stated) | 43 | 
